Source: publication PMC10686834, “Targeting myeloid chemotaxis to reverse prostate cancer therapy resistance” (Nature, 2023)
Read-outs that look alike come from different tables or passages of the source.

Assays:
rat [1] = details: in vivo; cited from earlier work
[2] = Pharmacokinetics of AZD5069 in plasma, non-compartmental analysis (AUClast, Cmax); assay type: in vivo, human
Description: Specific pharmacokinetic collection time points are listed in the study protocol. Pharmacokinetic parameters were calculated using non-compartmental analysis (Phoenix v.8.1, Certara). Fresh tumour needle core biopsies from matched disease sites (lymph node, bone and soft tissue) were collected at baseline (within 1 week of treatment commencement) and approximately 2 weeks after starting AZD5069 in patients when this was deemed safe and feasible. Tumour biopsies were obtained from 18 patients under computerized tomography or ultrasound guidance by an experienced interventional radiologist (N.T.). […] One patient had only a baseline tumour biopsy. Two patients underwent on-treatment biopsies after 4 weeks. Immediately after biopsy, tumour samples were immersed in 10% neutral-buffered formalin for 24 hours. Samples were processed through paraffin wax for histologic examination. Three 3 μm sections of formalin-fixed paraffin-embedded (FFPE) tumour biopsy were stained with haematoxylin and eosin to confirm the presence of tumour by a pathologist (B.G.). Tumour samples with insufficient tumour content or significant crushed artefact were excluded from analyses (B.G.). Baseline FFPE samples were analysed by IHC, and pre- and post-treatment FFPE biopsies were analysed by IF and targeted RNA profiling using HTG EdgeSeq. All samples that failed initial analyses by IF were restained at least once. A list of tumour samples and their methods of analyses are detailed in Supplementary Table 4.

[3] = system: patients with ARSI-resistant mCRPC; test: Phase 1 trial of AZD5069 plus enzalutamide: antitumour activity (RECIST v.1.1, PSA, CTC count); assay type: in vivo, human
Text: Patients needed to be on treatment for at least 12 weeks to be considered a responder. Thirteen patients had assessable measurable disease by Response Evaluation Criteria in Solid Tumors v.1.1. […] All patients classed as partial responders had radiologic progression-free survival of more than 6 months. […] Three of four patients classed as partial responders, for whom pre-treatment tissue biopsy was available for androgen receptor splice variant 7 (AR-V7) immunohistochemistry (IHC) including the patient who received only abiraterone previously, had tumour expressing AR-V7 protein.
Radiologic tumour responses were measured by computerized tomography of the thorax, abdomen and pelvis, bone scan, and, where indicated, whole-body magnetic resonance imaging, at baseline, once every 3 cycles, and then at the end of treatment if this was more than 8 weeks since the last scan. PSA and CTC count were measured at baseline, and then on day 1 of every cycle, and at the end of treatment. CTC counts were analysed using previously described methods.
Secondary endpoints were:(i) the rate of objective response, with objective response defined as confirmed soft tissue objective response by Response Evaluation Criteria in Solid Tumors v.1.1 in those with measurable disease, and/or PSA decline ≥50% confirmed 4 weeks or later, and/or CTC count conversion from ≥5 per 7.5 ml of blood at baseline to <5 per 7.5 ml of blood at nadir; (ii) pharmacokinetic parameters, including maximum concentration, area under the concentration–time curve; and (iii) pharmacodynamic changes including identifying patients whose blood NLR, neutrophil, and intratumour myeloid cell density decrease. Exploratory endpoints included blood cytokine levels and evaluation of tumour molecular profile on response.
Sample size was chosen pragmatically. According to the rule-based 3 + 3 design, which guided dose-escalation decisions, the cohort size was three patients and skipping of dose levels was not allowed. Patients who completed the DLT period or experienced a DLT during the DLT period were considered part of the evaluable population. Patients who received at least one dose of study drug were considered part of the safety population. To be evaluable for response, the patient must have met the eligibility criteria, received at least three cycles of trial medication, and have had baseline assessment of disease. Comparisons of baseline characteristics between patients classed as responders and those classed as non-responders were carried out using the two-sided Mann–Whitney U-test. Comparisons of paired pharmacokinetic and pharmacodynamic parameters were carried out using the two-sided paired Wilcoxon signed-rank test. Safety variables and pharmacokinetic and pharmacodynamic endpoints were summarized descriptively.

rat [4] = details: 1-month and 6-month rat studies; ref AZD5069 Investigator Brochure (IB); cited from earlier work
[5] = system: patients with advanced solid tumours or metastatic pancreatic ductal adenocarcinoma; details: ref AZD5069 IB (07 July 2019), cited from earlier work
[6] = system: gastric emptying and intestinal motility; details: rat, ref AZD5069 Investigator Brochure (IB), cited from earlier work
[7] = partial responder at AZD5069 80 mg BD
[8] = first partial responder at AZD5069 160 mg BD, at nadir (3–4 months)
[9] = partial responder at AZD5069 120 mg BD
[10] = second responder at AZD5069 160 mg BD
[11] = 109 patients in two oncology studies

SMILES: C[C@@H](Oc1cc(NS(=O)(=O)N2CCC2)nc(SCc2cccc(F)c2F)n1)[C@@H](O)CO [AZD5069]
- tolerated single doses (rat [1]): up to 600 mg/kg
- AZD5069 exposure (AUClast and Cmax) at steady state versus dose ([2]; AZD5069 monotherapy day 15, 40 to 160 mg BD): increased in a dose-dependent manner
- AZD5069 exposure (AUClast) with enzalutamide ([2]; combination (28 days) versus monotherapy (14 days), particularly at the higher dose levels): decreased after the addition of enzalutamide
- drug exposure (AUClast and Cmax) [2, 7]: comparable to those of patients treated at 160 mg BD
- objective partial response rate (RECIST v.1.1 ≥30% decrease, PSA decline ≥50% and/or CTC conversion) ([3]; 21 response-evaluable patients, all dose levels, plus enzalutamide): 24%
- CTC count ([3]; Patient 4 (as per Fig. 4a), C1D1): 5 CTC/7.5 ml blood
- CTC count ([3]; Patient 4, C1D15): 2 CTC/7.5 ml blood
- CTC count ([3]; Patient 4, C2D1): 1 CTC/7.5 ml blood
- CTC count ([3]; Patient 4, C3D1): 5 CTC/7.5 ml blood
- CTC count ([3]; Patient 4, C4D1): 3 CTC/7.5 ml blood
- CTC count ([3]; Patient 4, C5D1): 5 CTC/7.5 ml blood
- CTC count ([3]; Patient 4, C6D1): 5 CTC/7.5 ml blood
- CTC count ([3]; Patient 4, C7D1): 3 CTC/7.5 ml blood
- CTC count ([3]; Patient 4, C8D1): 12 CTC/7.5 ml blood
- CTC count ([3]; Patient 4, C9D1): 14 CTC/7.5 ml blood
- CTC count ([3]; Patient 4, C10D1): 33 CTC/7.5 ml blood
- CTC count ([3]; Patient 4, C11D1): 34 CTC/7.5 ml blood
- CTC count ([3]; Patient 4, C12D1): 57 CTC/7.5 ml blood
- CTC count ([3]; Patient 4, C13D1): 52 CTC/7.5 ml blood
- CTC count ([3]; Patient 4, C14D1): 53 CTC/7.5 ml blood
- CTC count ([3]; Patient 4, C15D1): 96 CTC/7.5 ml blood
- CTC count ([3]; Patient 4, C16D1): 235 CTC/7.5 ml blood
- CTC count ([3]; Patient 4, C17D1): 86 CTC/7.5 ml blood
- CTC count ([3]; Patient 4, C18D1): 97 CTC/7.5 ml blood
- CTC count ([3]; Patient 4, Treatment Discontinuation): 119 CTC/7.5 ml blood
- CTC count ([3]; Patient 10 (as per Fig. 4a), C1D1): 39 CTC/7.5 ml blood
- CTC count ([3]; Patient 10, C1D15): 26 CTC/7.5 ml blood
- CTC count ([3]; Patient 10, C2D1): 19 CTC/7.5 ml blood
- CTC count ([3]; Patient 10, C3D1): 0 CTC/7.5 ml blood
- CTC count ([3]; Patient 10, C4D1): 10 CTC/7.5 ml blood
- CTC count ([3]; Patient 10, C5D1): 46 CTC/7.5 ml blood
- CTC count ([3]; Patient 10, C9D1): 101 CTC/7.5 ml blood
- CTC count ([3]; Patient 10, Treatment Discontinuation): 129 CTC/7.5 ml blood
- radiologic progression-free survival of patients classed as partial responders ([3]; all five partial responders): more than 6 months
- radiologic progression-free survival ([3]; first partial responder at AZD5069 160 mg BD): 8 months
- PSA fall [3, 8]: 84%
- decrease in nodal disease [3, 8]: 20%
- PSA on treatment ([3]; first partial responder at AZD5069 160 mg BD, at nadir, from 344 ng ml^−1): 55 ng/mL
- duration of CTC conversion [3, 7]: seven
- time on trial [3, 7]: 16 months
- CTC count ([3]; partial responder at AZD5069 80 mg BD, at cycle 2, baseline 9): 1 per 7.5 ml of blood
- duration of radiologic and clinical responses [3, 9]: 11 months
- reduction of measurable disease [3, 9]: 31%
- PSA fall ([3]; partial responder at AZD5069 120 mg BD, after 5 cycles): 89%
- PSA on treatment ([3]; partial responder at AZD5069 120 mg BD, after 5 cycles, from 98 ng ml^−1): 11 ng/mL
- time to new bone metastases ([3]; partial responder at AZD5069 320 mg BD): 8 months
- PSA reduction ([3]; partial responder at AZD5069 320 mg BD, after four cycles): 64%
- PSA on treatment ([3]; partial responder at AZD5069 320 mg BD, after four cycles, from 129 ng ml^−1): 47 ng/mL
- PSA change [3, 10]: no PSA decrease
- radiologic progression-free survival [3, 10]: 8 months
- CTC count, peak ([3]; second responder at AZD5069 160 mg BD, during cycle 1, baseline 11): 39 per 7.5 ml of blood
- CTC count ([3]; second responder at AZD5069 160 mg BD, during cycle 4): 0 per 7.5 ml of blood
- dose with enlarged mandibular lymph nodes in both sexes (rat [4]): ≥ 40 mg/kg BD
- causally-related AEs that led to treatment discontinuation ([5]; 109 patients in two oncology studies (four patients)): 3.7%
- causally-related AEs of CTCAE ≥Grade 3: fatigue [5, 11]: 4.6%
- causally-related AEs of CTCAE ≥Grade 3: neutropenia [5, 11]: 11.0%
- causally-related AEs of CTCAE ≥Grade 3: neutrophil count decreased [5, 11]: 4.6%
- causally-related AEs: decreased appetite [5, 11]: 20.2%
- causally-related AEs: diarrhoea [5, 11]: 10.1%
- causally-related AEs: fatigue [5, 11]: 22.9%
- causally-related AEs: nausea [5, 11]: 11.9%
- causally-related AEs: neutropenia [5, 11]: 15.6%
- causally-related AEs: neutrophil count decreased [5, 11]: 11.0%
- causally-related SAEs [5, 11]: 9.2%
- fatal AE considered treatment-related [5, 11]: no fatal AE
- most common AEs: decreased appetite [5, 11]: 35.8%
- most common AEs: fatigue [5, 11]: 38.5%
- most common AEs: nausea [5, 11]: 28.4%
- patients with adverse events considered related to study treatment [5, 11]: 73.4%
- neutrophil count decreased ([5]; Study NCT02499328, 40 mg BD dose (4/64)): 6.3%
- neutrophil count decreased ([5]; Study NCT02499328, 80 mg BD dose (6/25)): 24%
- No Observed Effect Level (NOEL) ([6]; gastric emptying and intestinal motility): 60 mg/kg
- dose level with inhibition of gastric emptying and intestinal motility [6]: 350 mg/kg
